According to PubChem BioAssay AID1259407 (Chemical Carcinogenesis Research Information System (CCRIS), 2018):
Activity calls are given as the source filed them. How the calls were made is not given here.

System: CCRIS mutagenicity, Ames/micronucleus/aberration tests
Test: CCRIS mutagenicity studies
[1] = Test System: AMES SALMONELLA TYPHIMURIUM, Strain/Indicator: TA98, Metabolic Activation: NONE, Method: STANDARD PLATE
[2] = Test System: AMES SALMONELLA TYPHIMURIUM, Strain/Indicator: TA98, Metabolic Activation: RAT, LIVER, S-9, AROCLOR 1254, Method: STANDARD PLATE
[3] = Test System: AMES SALMONELLA TYPHIMURIUM, Strain/Indicator: TA100, Metabolic Activation: NONE, Method: PREINCUBATION
[4] = Test System: AMES SALMONELLA TYPHIMURIUM, Strain/Indicator: TA100, Metabolic Activation: NONE, Method: STANDARD PLATE
[5] = Test System: AMES SALMONELLA TYPHIMURIUM, Strain/Indicator: TA100, Metabolic Activation: RAT, LIVER, S-9, AROCLOR 1254, Method: STANDARD PLATE
[6] = Test System: AMES SALMONELLA TYPHIMURIUM, Strain/Indicator: TA102, Metabolic Activation: NONE, Method: PREINCUBATION

## O=[N+]([O-])c1cc2c3ccccc3ccc2c2ccccc12
Test System: AMES SALMONELLA TYPHIMURIUM, Strain/Indicator: TA98, Metabolic Activation: HAMSTER LIVER S-9, 6-NITROCHRYSENE, Method: PREINCUBATION
  mutagenic call: active; positive
Test System: AMES SALMONELLA TYPHIMURIUM, Strain/Indicator: TA98, Metabolic Activation: HAMSTER LIVER S-9, Method: PREINCUBATION
  mutagenic call: active; positive
[1]
  mutagenic call: active; positive
Test System: AMES SALMONELLA TYPHIMURIUM, Strain/Indicator: TA98, Metabolic Activation: RAT, LIVER, S-9, AROCLOR 1254, Method: PREINCUBATION
  mutagenic call: active; positive
[2]
  mutagenic call: active; positive
Test System: AMES SALMONELLA TYPHIMURIUM, Strain/Indicator: TA98, Metabolic Activation: RAT, LIVER, S-9, Method: PREINCUBATION
  mutagenic call: active; positive
Test System: AMES SALMONELLA TYPHIMURIUM, Strain/Indicator: TA100, Metabolic Activation: HAMSTER LIVER S-9, 6-NITROCHRYSENE, Method: PREINCUBATION
  mutagenic call: active; positive
Test System: AMES SALMONELLA TYPHIMURIUM, Strain/Indicator: TA100, Metabolic Activation: HAMSTER LIVER S-9, Method: PREINCUBATION
  mutagenic call: active; positive
[3]
  mutagenic call: active; positive
[4]
  mutagenic call: active; positive
Test System: AMES SALMONELLA TYPHIMURIUM, Strain/Indicator: TA100, Metabolic Activation: RAT, LIVER, S-9, AROCLOR 1254, Method: PREINCUBATION
  mutagenic call: active; positive
[5]
  mutagenic call: active; positive
Test System: AMES SALMONELLA TYPHIMURIUM, Strain/Indicator: TA100, Metabolic Activation: RAT, LIVER, S-9, Method: PREINCUBATION
  mutagenic call: active; positive
Test System: AMES SALMONELLA TYPHIMURIUM, Strain/Indicator: TA102, Metabolic Activation: HAMSTER LIVER S-9, 6-NITROCHRYSENE, Method: PREINCUBATION
  mutagenic call: active; positive
Test System: AMES SALMONELLA TYPHIMURIUM, Strain/Indicator: TA102, Metabolic Activation: HAMSTER LIVER S-9, Method: PREINCUBATION
  mutagenic call: active; positive
[6]
  mutagenic call: inactive; negative
Test System: CHINESE HAMSTER OVARY, Strain/Indicator: CHO-K1-BH4 (HGPRT)/6-THIOGUANINE, Metabolic Activation: NONE, Method: STANDARD PLATE
  mutagenic call: inactive; negative
Test System: CHINESE HAMSTER OVARY, Strain/Indicator: CHO-K1-BH4 (HGPRT)/6-THIOGUANINE, Metabolic Activation: RAT, LIVER, S-9, AROCLOR 1254, Method: STANDARD PLATE
  mutagenic call: active; positive
Test System: CHINESE HAMSTER OVARY, Strain/Indicator: CHO-UV5 (HGPRT)/6-THIOGUANINE, Metabolic Activation: NONE, Method: STANDARD PLATE
  mutagenic call: active; positive
Test System: CHINESE HAMSTER OVARY, Strain/Indicator: CHO-UV5 (HGPRT)/6-THIOGUANINE, Metabolic Activation: RAT, LIVER, S-9, AROCLOR 1254, Method: STANDARD PLATE
  mutagenic call: active; positive

## O=C1C(=O)c2cccc3cccc1c23
Test System: AMES SALMONELLA TYPHIMURIUM, Strain/Indicator: TA98, Metabolic Activation: HAMSTER, LIVER, S-9, AROCLOR 1254, Method: STANDARD PLATE
  mutagenic call: inactive; negative
[1]
  mutagenic call: active; positive
[2]
  mutagenic call: active; positive
Test System: AMES SALMONELLA TYPHIMURIUM, Strain/Indicator: TA100, Metabolic Activation: HAMSTER, LIVER, S-9, AROCLOR 1254, Method: STANDARD PLATE
  mutagenic call: active; positive
[4]
  mutagenic call: inactive; negative
[5]
  mutagenic call: inactive; negative
Test System: MOUSE LYMPHOMA, Strain/Indicator: L5178Y (TK+/TK-), Metabolic Activation: NONE, Method: SUSPENSION/PLATE
  mutagenic call: active; positive. reevaluation of results: equivocal
Test System: MOUSE LYMPHOMA, Strain/Indicator: L5178Y (TK+/TK-), Metabolic Activation: RAT, LIVER, S-9, AROCLOR 1254, Method: SUSPENSION/PLATE
  mutagenic call: active; positive. reevaluation of results: equivocal

## CCCCCN
Test System: AMES SALMONELLA TYPHIMURIUM, Strain/Indicator: TA98, Metabolic Activation: HAMSTER, LIVER, S-9, AROCLOR 1254 (10%), Method: PREINCUBATION
  mutagenic call: inactive; negative
Test System: AMES SALMONELLA TYPHIMURIUM, Strain/Indicator: TA98, Metabolic Activation: NONE, Method: PREINCUBATION
  mutagenic call: inactive; negative
Test System: AMES SALMONELLA TYPHIMURIUM, Strain/Indicator: TA98, Metabolic Activation: RAT, LIVER, S-9, AROCLOR 1254 (10%), Method: PREINCUBATION
  mutagenic call: inactive; negative
Test System: AMES SALMONELLA TYPHIMURIUM, Strain/Indicator: TA100, Metabolic Activation: HAMSTER, LIVER, S-9, AROCLOR 1254 (10%), Method: PREINCUBATION
  mutagenic call: inactive; negative
[3]
  mutagenic call: inactive; negative
Test System: AMES SALMONELLA TYPHIMURIUM, Strain/Indicator: TA100, Metabolic Activation: RAT, LIVER, S-9, AROCLOR 1254 (10%), Method: PREINCUBATION
  mutagenic call: inactive; negative
Test System: AMES SALMONELLA TYPHIMURIUM, Strain/Indicator: TA1535, Metabolic Activation: HAMSTER, LIVER, S-9, AROCLOR 1254 (10%), Method: PREINCUBATION
  mutagenic call: inactive; negative
Test System: AMES SALMONELLA TYPHIMURIUM, Strain/Indicator: TA1535, Metabolic Activation: NONE, Method: PREINCUBATION
  mutagenic call: inactive; negative
Test System: AMES SALMONELLA TYPHIMURIUM, Strain/Indicator: TA1535, Metabolic Activation: RAT, LIVER, S-9, AROCLOR 1254 (10%), Method: PREINCUBATION
  mutagenic call: inactive; negative
Test System: AMES SALMONELLA TYPHIMURIUM, Strain/Indicator: TA1537, Metabolic Activation: HAMSTER, LIVER, S-9, AROCLOR 1254 (10%), Method: PREINCUBATION
  mutagenic call: inactive; negative
Test System: AMES SALMONELLA TYPHIMURIUM, Strain/Indicator: TA1537, Metabolic Activation: NONE, Method: PREINCUBATION
  mutagenic call: inactive; negative
Test System: AMES SALMONELLA TYPHIMURIUM, Strain/Indicator: TA1537, Metabolic Activation: RAT, LIVER, S-9, AROCLOR 1254 (10%), Method: PREINCUBATION
  mutagenic call: inactive; negative

## CC(C)(C)[N+](=O)[O-]
[3]
  mutagenic call: inactive; negative
Test System: AMES SALMONELLA TYPHIMURIUM, Strain/Indicator: TA100, Metabolic Activation: RAT, LIVER, S-9, AROCLOR, Method: PREINCUBATION
  mutagenic call: inactive; negative
[6]
  mutagenic call: inactive; negative
Test System: AMES SALMONELLA TYPHIMURIUM, Strain/Indicator: TA102, Metabolic Activation: RAT, LIVER, S-9, AROCLOR, Method: PREINCUBATION
  mutagenic call: inactive; negative

## CCCCCCCC(O)C=CC=O (stereo unspecified)
End Point: IN VITRO CHROMOSOMAL ABERRATIONS, Test System: RAT HEPATOCYTES, Metabolic Activation: NONE
  mutagenic call: active; positive
End Point: IN VITRO MICRONUCLEUS, Test System: RAT HEPATOCYTES, Metabolic Activation: NONE
  mutagenic call: inactive; negative

## Cc1ccc(/C=C/c2ccc([N+](=O)[O-])cc2)cc1
Test System: AMES SALMONELLA TYPHIMURIUM, Strain/Indicator: TA98 (NR), Metabolic Activation: NONE, Method: STANDARD PLATE
  mutagenic call: inactive; negative
Test System: AMES SALMONELLA TYPHIMURIUM, Strain/Indicator: TA98 (NR), Metabolic Activation: S-9, Method: STANDARD PLATE
  mutagenic call: active; positive
[1]
  mutagenic call: active; positive
Test System: AMES SALMONELLA TYPHIMURIUM, Strain/Indicator: TA98, Metabolic Activation: RAT, LIVER, S-9, AROCLOR, Method: STANDARD PLATE
  mutagenic call: active; positive
Test System: AMES SALMONELLA TYPHIMURIUM, Strain/Indicator: TA98, Metabolic Activation: S-9, Method: STANDARD PLATE
  mutagenic call: active; positive
Test System: AMES SALMONELLA TYPHIMURIUM, Strain/Indicator: TA100 (NR), Metabolic Activation: NONE, Method: STANDARD PLATE
  mutagenic call: inactive; negative
Test System: AMES SALMONELLA TYPHIMURIUM, Strain/Indicator: TA100 (NR), Metabolic Activation: S-9, Method: STANDARD PLATE
  mutagenic call: active; positive
[4]
  mutagenic call: active; positive
Test System: AMES SALMONELLA TYPHIMURIUM, Strain/Indicator: TA100, Metabolic Activation: RAT, LIVER, S-9, AROCLOR, Method: STANDARD PLATE
  mutagenic call: active; positive
Test System: AMES SALMONELLA TYPHIMURIUM, Strain/Indicator: TA100, Metabolic Activation: S-9, Method: STANDARD PLATE
  mutagenic call: active; positive

## Cc1cc2c(c(O)c1O)C(=O)c1c(O)cc(O)cc1C2=O
[1]
  mutagenic call: inactive; negative
[4]
  mutagenic call: inactive; negative
Test System: AMES SALMONELLA TYPHIMURIUM, Strain/Indicator: TA1535, Metabolic Activation: NONE, Method: STANDARD PLATE
  mutagenic call: inactive; negative
Test System: AMES SALMONELLA TYPHIMURIUM, Strain/Indicator: TA1537, Metabolic Activation: NONE, Method: STANDARD PLATE
  mutagenic call: active; positive
Test System: AMES SALMONELLA TYPHIMURIUM, Strain/Indicator: TA1537, Metabolic Activation: RAT, LIVER, S-9, PCB, Method: STANDARD PLATE
  mutagenic call: active; positive
